Assay results as given in patent US20130089603A1, “COMPOSITIONS AND METHODS FOR TREATING OBESITY AND OBESITY-RELATED CONDITIONS” (CHELATEXX LLC, priority 2006, published 2013).
Read-outs that look alike come from different tables or passages of the source.

Key:
[1] = cited from earlier work
[2] = cited from earlier work; remark: listed apart in the source
pancreatic lipase = molecular target: T1, pancreatic lipase (Homo sapiens, UniProt P16233); assay: in vitro testing of lipase inhibitor effectiveness in presence of activated charcoal; assay type: biochemical; conditions: 60 mg of orlistat with simethicone and 400 mg of porous activated charcoal (not enteric-coated)
T1 sequence (P16233 17-465): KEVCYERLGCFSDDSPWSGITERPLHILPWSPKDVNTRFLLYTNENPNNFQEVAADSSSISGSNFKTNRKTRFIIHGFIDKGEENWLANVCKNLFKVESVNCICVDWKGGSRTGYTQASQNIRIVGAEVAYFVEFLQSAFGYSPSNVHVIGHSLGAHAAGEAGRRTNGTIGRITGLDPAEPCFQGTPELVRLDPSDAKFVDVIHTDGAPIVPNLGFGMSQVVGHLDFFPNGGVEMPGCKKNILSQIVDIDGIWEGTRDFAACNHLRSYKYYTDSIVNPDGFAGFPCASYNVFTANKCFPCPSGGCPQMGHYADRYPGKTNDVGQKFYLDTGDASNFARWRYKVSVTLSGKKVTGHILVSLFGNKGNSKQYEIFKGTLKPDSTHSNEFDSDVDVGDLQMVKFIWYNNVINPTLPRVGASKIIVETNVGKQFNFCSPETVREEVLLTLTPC
From the text: While the embodiment described in the preceding paragraph has been proven effective in preventing Underwear Issues associated with lipase inhibitors, in vitro testing has shown that the effectiveness of the lipase inhibitor is decreased due to the fact that some of the lipase inhibitor is absorbed by the activated charcoal and is therefore not available for binding to pancreatic lipase. […] Rather, the pharmaceutical composition may be configured such that the lipase inhibitor and surfactant are released in the stomach, and the activated charcoal is not released until the small intestine. By doing so, the lipase inhibitor becomes irreversibly bound to the pancreatic lipase enzyme (about 25%) in the very first 10 centimeters of the small intestines (the duodenum), prior to release of the activated charcoal, thus ensuring that the activated charcoal will not interfere with the ability of the lipase inhibitor to inactivate pancreatic lipase. For this reason, the activated charcoal in some embodiments of the compositions and methods herein is enteric-coated in order to maintain the full efficacy of the lipase inhibitor. […] Therefore, by using an enteric coated porous activated charcoal, the small undigested fat, emulsified in the chyme by actions of the emulsifying agent, can be chelated by the released porous activated charcoal in the distal small bowel.

[3] = cited from earlier work; remark: listed apart in the source
[4] = clinical trials on over 2800 patients for one or two years; cited from earlier work

Compound: CCCCCCCCCCC[C@@H](C[C@@H]1OC(=O)[C@H]1CCCCCC)OC(=O)[C@H](CC(C)C)NC=O [orlistat, tetrahydrolipstatin]
- individuals reporting orlistat adverse events ([1]; normal (25 grams of fat/meal) US diet): over 90%
- individuals reporting orlistat adverse events ([1]; rigid low fat diet): over 50%
- study participants with adverse events ([2]; 60 mg of orlistat): 89.1%
- study participants with adverse events ([2]; 120 mg of orlistat): 91.4%
- decrease in the effectiveness of the orlistat (pancreatic lipase): 30%
- ingested fat whose digestion and absorption is prevented ([3]; 60 mg dose of orlistat (OTC)): 25%
- ingested fat whose digestion and absorption is prevented ([3]; 120 mg dose of orlistat (prescription)): 30%
- ingested fat whose digestion and absorption is prevented ([3]; dose not stated): 25-35%
- Abdominal pain/discomfort (upper gastrointestinal adverse event) [4]: 25.5%
- Fatty/Oily stool (lower gastrointestinal adverse event) [4]: 26.0%
- Fecal incontinence (lower gastrointestinal adverse event) [4]: 7.7%
- Fecal urgency (lower gastrointestinal adverse event) [4]: 22.1%
- Flatus - with discharge (lower gastrointestinal adverse event) [4]: 23.9%
- Increased defecation (lower gastrointestinal adverse event) [4]: 10.8%
- Nausea (upper gastrointestinal adverse event) [4]: 8.1%
- Oily Evacuation (lower gastrointestinal adverse event) [4]: 11.9%
- Oily Spotting (lower gastrointestinal adverse event) [4]: 26.6%
